# Measured values published in patent US20120071496A1, “Aminopyrimidinamides As Pest Control Agents” (Bayer CropScience AG, priority 2009, published 2012).
# Test system: Spodoptera litura third instar larvae
# Experiment: Test against tobacco cutworm (Spodoptera litura) larvae
# Format: in vivo
# Conditions: active compound concentration 100 ppm; immersed sweet potato leaves; after 7 days
# Protocol: Unless not mentioned otherwise, the test solutions were prepared as follows:
# Containing as solvent: Dimethylformamide, 3 parts by weight; and as emulsifier: Polyoxyethylene alkyl phenyl ether, 1 part by weight
# Test Against Tobacco Cutworm (Spodoptera litura) Larvae
# Leaves of sweet potato were immersed in the test solution at the appropriate concentration, and the leaves were dried in air. The leaves were then placed in a petri dish having a diameter of 9 cm, and ten Spodoptera litura at third instar larvae were released therein. The petri dishes were placed in a temperature-controlled chamber at 25° C. After 2 days and 4 days more sweet potato leaves were added. After 7 days, the number of dead larvae was counted to calculate the insecticidal activity. An insecticidal activity of 100% means that all larvae were killed, whereas an insecticidal activity of 0% means that no larva was killed.
row,Compound,insecticidal activity [%]
1,O=C(Nc1c(NC2CC2)ncnc1-c1ccc(F)cc1F)c1cccnc1C1CC1 [1-240],100

# Test system: not listed separately
# Experiment: logP (HCOOH)
# Format: physicochemical
# Conditions: HCOOH (formic acid); Table 6
row,Compound,chromatographic logP
1,"CCc1ncccc1C(=O)Nc1c(Cl)ncnc1Nc1ccc(C(F)(F)F)cc1 [5-5, N-(4-Chloro-6-{[4-(trifluoromethyl)phenyl]amino}pyrimidin-5-yl)-2-ethylnicotinamide]",2.12

# Same assay, conditions: Table 2
row,Compound,logP (HCOOH)
1,CCc1ncccc1C(=O)Nc1c(NC(C)(C)C)ncnc1-c1ccc(Cl)cc1 [1-135],1.86
2,CCc1ncccc1C(=O)Nc1c(NC2CC2)nc(C)nc1-c1ccc(F)cc1 [1-276],0.88
3,O=C(Nc1c(NC2CC2)ncnc1-c1ccc(F)cc1)c1cccnc1C(=O)NC1CC1 [1-262],1.45
4,CCc1ncccc1C(=O)Nc1c(NC2CC2C)ncnc1-c1ccc(Cl)cc1F (centres unmarked) [1-230],1.72
5,CCc1ccccc1C(=O)Nc1c(NC2CC2)ncnc1-c1ccc(C(F)(F)F)cc1 [1-86],2.68
6,CCc1ncccc1C(=O)Nc1c(NC(C)C2CC2)ncnc1-c1ccc(C#N)cc1 (centres unmarked) [1-145],1.67
7,CCc1ncccc1C(=O)Nc1c(NC2CC2)ncnc1-c1ccccc1C [1-182],0.94
8,CCc1ncccc1C(=O)Nc1c(NC(C)C2(Cl)CC2)ncnc1-c1ccc(Cl)cc1Cl (centres unmarked) [1-148],2.67
9,O=C(Nc1c(NC2CC2)ncnc1-c1ccc(F)cc1)c1cccnc1C(F)(F)F [1-170],1.59
10,O=C(Nc1c(NC2CC2)ncnc1-c1ccc(C(F)(F)F)cc1)c1ccccc1Cl [1-80],2.33
11,CCc1ncccc1C(=O)Nc1c(NC2CC2)ncnc1-c1ccc(SC(F)(F)F)cc1 [1-114],1.4
12,CCc1ncccc1C(=O)Nc1c(NC2CC2)ncnc1-c1ccc(C#N)cc1 [1-133],1.10
13,CCc1ncccc1C(=O)Nc1c(NC2CC2)ncnc1-c1ccccc1Cl [1-140],1.07
14,CCc1nccc(Cl)c1C(=O)Nc1c(NC2CC2)ncnc1-c1ccc(F)cc1 [1-315],2.18
15,CCOc1ncccc1C(=O)Nc1c(NC2CC2)ncnc1-c1ccc(C#N)cc1 [1-160],1.80
16,CCc1ncccc1C(=O)Nc1c(NC(C)(C)C)ncnc1-c1ccc(F)cc1 [1-134],1.53
17,Cc1ccccc1C(=O)Nc1c(NC2CC2)ncnc1-c1ccc(C(F)(F)F)cc1 [1-81],2.33
18,O=C(Nc1c(NC2CC2)ncnc1-c1ccc(Cl)cc1)c1cccnc1Cl [1-130],1.55
19,CC(C)Nc1ncnc(-c2ccc(OC(F)(F)F)cc2)c1NC(=O)c1cccnc1Cl [1-76],2.05
20,O=C(Nc1c(NC2CC2)ncnc1-c1ccc(F)cc1)c1cc(Cl)cnc1C1CC1 [1-198],2.16
21,O=C(Nc1c(NC2CC2)ncnc1-c1ccc(Cn2cnc(C(F)(F)F)n2)cc1)c1cccnc1C1CC1 [1-287],1.45
22,CCc1ncccc1C(=O)Nc1c(NC(C)(C)C2CC2)ncnc1-c1ccc(Cl)cc1 [1-151],2.22

row,Compound,logP (HCOOH)
1,CCc1cccc(C)c1C(=O)Nc1c(NC2CC2)ncnc1-c1ccc(F)cc1 [1-320],2.39
2,CCc1ncccc1C(=O)Nc1c(NC(C)C2(Cl)CC2)ncnc1-c1ccc(Cl)cc1 (centres unmarked) [1-149],2.26
3,CCc1ncccc1C(=O)Nc1c(NC2CC2)ncnc1-c1ccc(F)cc1Cl [1-139],0.79
4,O=C(Nc1c(NC2CC2)ncnc1-c1ccc(C(F)(F)F)cc1)c1cccnc1C(F)(F)F [1-84],2.19
5,Cc1nc(C(F)(F)F)ccc1C(=O)Nc1c(NC2CC2)ncnc1-c1ccc(Cl)cc1 [1-199],2.35
6,COc1ncccc1C(=O)Nc1c(NC2CC2)ncnc1-c1ccc(Cl)cc1 [1-154],1.83
7,CCc1ncccc1C(=O)Nc1c(NC2CC2)nc(C)nc1-c1ccc(F)cc1F [1-278],1
8,CCc1ncccc1C(=O)Nc1c(NC2CC2)nc(C)nc1-c1ccc(OC(F)(F)F)cc1 [1-279],1.44
9,CC(C)c1ncccc1C(=O)Nc1c(NC2CC2)ncnc1-c1ccc(C(F)(F)F)cc1 [1-85],2.02
10,CCc1ncccc1C(=O)Nc1c(NC(C)C2(Cl)CC2)ncnc1-c1ccc(C#N)cc1 (centres unmarked) [1-150],2.08
11,CCc1ncccc1C(=O)Nc1c(NC(C)C2CC2)ncnc1-c1ccccc1 (centres unmarked) [1-152],1.32
12,CCc1ncccc1C(=O)Nc1c(NC(C)C2CC2)ncnc1-c1ccc(Cl)cc1 (centres unmarked) [1-144],1.62
13,CC(C)Oc1ncccc1C(=O)Nc1c(NC2CC2)ncnc1-c1ccc(OC(F)(F)F)cc1 [1-165],2.32
14,CCc1ncccc1C(=O)Nc1c(NC2CC2)ncnc1-c1ccc(F)c(F)c1 [1-4],1.34
15,CCOc1ncccc1C(=O)Nc1c(NC2CC2)ncnc1-c1ccc(Cl)cc1 [1-158],2.54
16,O=C(Nc1c(NC2CC2)ncnc1-c1ccc(OC(F)(F)F)cc1)c1ccccc1Cl [1-113],2.41
17,CCc1ncccc1C(=O)Nc1c(NC(C)(C)C)ncnc1-c1ccc(C(F)(F)F)cc1 [1-137],2.34
18,O=C(Nc1c(NC2CC2)ncnc1-c1ccc(C(F)(F)F)cc1)c1cccnc1Cl [1-82],1.94
19,CCOc1ncccc1C(=O)Nc1c(NC2CC2)ncnc1-c1ccc(OC(F)(F)F)cc1 [1-161],2.64
20,O=C(Nc1c(NC2CC2)ncnc1-c1ccc(Cl)cc1)c1cccnc1C(F)F [1-179],1.58
21,O=C(Nc1c(NC2CC2)ncnc1-c1ccc(F)cc1)c1cccnc1Cl [1-129],1.27
22,Cc1nc(NC2CC2)c(NC(=O)c2ccccc2Cl)c(-c2ccc(C(F)(F)F)cc2)n1 [1-88],1.93

row,Compound,logP (HCOOH)
1,CCc1ncccc1C(=O)Nc1c(NC(C)(C)C)ncnc1-c1ccc(Cl)cc1Cl [1-142],1.89
2,CCc1ncccc1C(=O)Nc1c(NC(C)C2CC2)ncnc1-c1ccc(F)cc1 (centres unmarked) [1-143],1.47
3,O=C(Nc1c(NC2CC2)ncnc1-c1ccccc1)c1cccnc1 [1-128],0.63
4,CCc1nccc(Cl)c1C(=O)Nc1c(NC2CC2)ncnc1-c1ccc(Cl)cc1 [1-316],2.54
5,CCOc1ncccc1C(=O)Nc1c(NC2CC2)ncnc1-c1ccc(F)cc1 [1-159],1.84
6,O=C(Nc1c(NC2CC2)ncnc1-c1ccc(OC(F)(F)F)cc1)c1ccccc1 [1-112],2.12
7,CCc1nc(C(F)(F)F)ccc1C(=O)Nc1c(NC2CC2)ncnc1-c1ccc(F)cc1 [1-196],2.43
8,Cc1nc(NC2CC2)c(NC(=O)c2cccnc2C)c(-c2ccc(C(F)(F)F)cc2)n1 [1-87],1.27
9,Cc1ncccc1C(=O)Nc1c(NC2CC2)ncnc1-c1cc(F)c(C(F)(F)F)c(F)c1 [1-122],1.95
10,Cc1ncccc1C(=O)Nc1c(NC2CC2)ncnc1-c1ccc(C(F)(F)F)cc1 [1-83],1.43
11,CCc1ncccc1C(=O)Nc1c(NC2CC2)ncnc1-c1ccc(C#N)cc1C [1-181],1.22
12,CC(C)Oc1ncccc1C(=O)Nc1c(NC2CC2)ncnc1-c1ccc(F)cc1 [1-163],2.19
13,CCc1ncccc1C(=O)Nc1c(NC2CC2)ncnc1-c1ccc(C(F)(F)F)cc1C [1-189],1.77
14,CCc1ncccc1C(=O)Nc1c(NC(C)(C)C)ncnc1-c1ccc(OC(F)(F)F)cc1 [1-138],2.32
15,COc1ncccc1C(=O)Nc1c(NC2CC2)ncnc1-c1ccc(C#N)cc1 [1-156],1.59
16,COc1ncccc1C(=O)Nc1c(NC2CC2)ncnc1-c1ccc(OC(F)(F)F)cc1 [1-157],2.21
17,Cc1ncccc1C(=O)Nc1c(NC2CC2)ncnc1-c1ccc(OS(=O)(=O)C(C)C)cc1 [1-121],1.15
18,CCc1ncccc1C(=O)Nc1c(NC2CC2)ncnc1-c1ccccc1 [1-127],1.01
19,CCc1ncccc1C(=O)Nc1c(NC2CC2)ncnc1-c1ccc(Cl)cc1C [1-188],1.40
20,O=C(Nc1c(NC2CC2)ncnc1-c1ccc(F)cc1)c1cccnc1C(F)C(F)(F)F (centres unmarked) [1-308],1.83
21,CC(Nc1ncnc(-c2ccc(OC(F)(F)F)cc2)c1NC(=O)c1cccnc1Cl)C1CC1 (centres unmarked) [1-99],2.44
22,O=C(Nc1c(NC2CC2)ncnc1-c1ccc(F)cc1)c1cccnc1OCC(F)(F)F [1-167],2.12

# Same assay, conditions: Table 4
row,Compound,logP (HCOOH)
1,CCc1ncccc1C(=O)Nc1c(Cl)ncnc1NC1CC1C (centres unmarked) [3-7],1.26
2,CCc1ncccc1C(=O)Nc1c(Cl)nc(C)nc1NC1CC1 [3-9],1.41
3,O=C(Nc1c(Cl)ncnc1NC1CC1)c1cccnc1OCC(F)(F)F [3-4],2.25
4,O=C(Nc1c(Cl)ncnc1NC1CC1)c1cccnc1CC(F)(F)F [3-5],1.61
5,CCc1ncccc1C(=O)Nc1c(CC)ncnc1NC1CC1 [3-8],1.74
6,CCc1ncccc1C(=O)Nc1c(Br)ncnc1NC1CC1 [3-3],0.84

# Same assay, conditions: table after Table 9
row,Compound,IogP (HCOOH)
1,O=C(Nc1c(NC2CC2)ncnc1-c1ccc(F)cc1)c1ccnn1-c1ccc(Cl)cc1 [9-2],2.02
2,O=C(Nc1c(NC2CC2)ncnc1-c1ccc(Cl)cc1)c1ccnn1-c1ccccc1Cl [9-4],2.05
3,O=C(Nc1c(NC2CC2)ncnc1-c1ccc(F)cc1)c1ccnn1-c1ccccc1Cl [9-3],1.76
